# Assay results reported in patent US20070128217A1 (priority 2003, published 2007).
# Assays:
# [1] = system: control sera (pooled serum of ten healthy LUMC hospital workers; commercial negative donor pooled serum from the Dutch bloodbank); assay type: binding, human; design: Binding of Control serum LUMC to linear peptides / Binding of Control serum Blood-bank to linear peptides / Binding of Control serum LUMC to looped peptides / Binding of Control Serum Blood-Bank to Looped peptides / Binding of Control serum LUMC to linear peptides of the protein M of SARS-CoV Urbani / Binding of Control serum Blood-bank to linear peptides of the protein M of SARS-CoV Urbani / Binding of Control serum LUMC to looped peptides of the protein M of SARS-CoV Urbani / Binding of Control Serum Blood-Bank to Looped peptides of the protein M of SARS-CoV Urbani: unit not given here
# [2] = system: antibodies in sera from SARS patients (sera 1a, 1b, 2, 6, 37, 62, London, SARS-yellow, SARS-green); assay type: binding, human; design: Binding of serum 6 to linear peptides of protein X1 of SARS-CoV Urbani / Binding of serum 37 to linear peptides of protein X1 of SARS-CoV Urbani / Binding of serum 6 to looped/cyclic peptide (PEPSCAN-ELISA) / Binding of serum 37 to looped/cyclic peptide (PEPSCAN-ELISA) / Binding of serum 37 to looped/cyclic peptides of protein X1 of SARS-CoV Urbani / Binding of serum 6 to linear peptides of protein X2 / Binding of serum 37 to linear peptides of protein X2 / Binding of serum 37 to looped/cyclic peptides of protein X2 of SARS-CoV Urbani / Binding of serum 6 to linear peptides of protein M of SARS-CoV Urbani / Binding of serum 37 to linear peptides of protein M of SARS-CoV Urbani / Binding of serum 6 to looped/cyclic peptides of protein M of SARS-CoV Urbani / Binding of serum 37 to looped/cyclic peptides of protein M of SARS-CoV Urbani / Binding of serum 6 to linear peptides of protein X3 of SARS-CoV Urbani / Binding of serum 37 to linear peptides of protein X3 of SARS-CoV Urbani / Binding of serum 37 to looped/cyclic peptides of protein X3 of SARS-CoV Urbani / Binding of serum 6 to linear peptides of protein X4 of SARS-CoV Urbani / Binding of serum 37 to linear peptides of protein X4 of SARS-CoV Urbani / Binding of serum 37 to looped/cyclic peptides of protein X4 of SARS-CoV Urbani / Binding of serum 6 to linear peptides of protein X5 of SARS-CoV Urbani / Binding of serum 37 to linear peptides of protein X5 of SARS-CoV Urbani / Binding of serum 37 to looped/cyclic peptides of protein X5 of SARS-CoV Urbani / Binding of serum 6 to linear peptides of protein N of SARS-CoV Urbani / Binding of serum 37 to linear peptides of protein N of SARS-CoV Urbani / Binding of serum 6 to linear peptide (PEPSCAN-ELISA) / Binding of serum 1a to looped/cyclic peptides of protein N of SARS-CoV Urbani / Binding of serum 1b to looped/cyclic peptides of protein N of SARS-CoV Urbani / Binding of serum 2 to looped/cyclic peptides of protein N of SARS-CoV Urbani / Binding of serum 6 to looped/cyclic peptides of protein N of SARS-CoV Urbani / Binding of serum 37 to looped/cyclic peptides of protein N of SARS-CoV Urbani / Binding of serum 62 to looped/cyclic peptides of protein N of SARS-CoV Urbani / Binding of serum London to looped/cyclic peptides of protein N of SARS-CoV Urbani / Binding of serum SARS-green to looped/cyclic peptides of protein N of SARS-CoV Urbani: unit not given here
# [3] = system: rabbit serum obtained by immunizing a rabbit with the SARS-CoV strain Frankfurt 1; assay type: binding; design: Binding of a rabbit serum to linear peptides / Binding of a rabbit serum to looped peptides / Rabbit serum linear peptides / Rabbit serum looped peptides / Binding of a rabbit serum to linear peptides of protein N of SARS-CoV Urbani (Rabbit serum linear peptides) / Binding of a rabbit serum to looped/cyclic peptides of protein N of SARS-CoV Urbani (Rabbit serum looped peptides): unit not given here
sequence,measurement,setting,value
LFARTRSMWSFNPET,Binding of Control Serum Blood-Bank to Looped peptides of the protein M of SARS-CoV Urbani,[1],0.6
same,Binding of Control serum Blood-bank to linear peptides of the protein M of SARS-CoV Urbani,[1],0.7
same,Binding of Control serum LUMC to linear peptides of the protein M of SARS-CoV Urbani,[1],0.8
same,Binding of Control serum LUMC to looped peptides of the protein M of SARS-CoV Urbani,[1],0.6
same,Binding of serum 1a to linear peptides of protein M of SARS-CoV Urbani,[2],0.8
same,Binding of serum 1a to looped/cyclic peptides of protein M of SARS-CoV Urbani,[2],0.7
same,Binding of serum 1b to linear peptides of protein M of SARS-CoV Urbani,[2],0.7
same,Binding of serum 1b to looped/cyclic peptides of protein M of SARS-CoV Urbani,[2],0.5
same,Binding of serum 2 to linear peptides of protein M of SARS-CoV Urbani,[2],0.5
same,Binding of serum 2 to looped/cyclic peptides of protein M of SARS-CoV Urbani,[2],0.6
same,Binding of serum 6 to linear peptides of protein M of SARS-CoV Urbani,[2],0.6
same,Binding of serum 6 to looped/cyclic peptides of protein M of SARS-CoV Urbani,[2],0.5
same,Binding of serum 37 to linear peptides of protein M of SARS-CoV Urbani,[2],0.5
same,Binding of serum 37 to looped/cyclic peptides of protein M of SARS-CoV Urbani,[2],0.7
same,Binding of serum 62 to linear peptides of protein M of SARS-CoV Urbani,[2],0.5
same,Binding of serum 62 to looped/cyclic peptides of protein M of SARS-CoV Urbani,[2],0.6
same,Binding of serum London to linear peptides of protein M of SARS-CoV Urbani,[2],0.4
same,Binding of serum London to looped/cyclic peptides of protein M of SARS-CoV Urbani,[2],0.2
same,Binding of serum SARS-green to linear peptides of protein M of SARS-CoV Urbani,[2],0.5
same,Binding of serum SARS-green to looped/cyclic peptides of protein M of SARS-CoV Urbani,[2],0.3
same,Binding of serum SARS-yellow to linear peptides of protein M of SARS-CoV Urbani,[2],0.2
same,Binding of serum SARS-yellow to looped/cyclic peptides of protein M of SARS-CoV Urbani,[2],0.7
same,Rabbit serum linear peptides,[3],0.1
same,Rabbit serum looped peptides,[3],0.3
LFLAWIMLLQFAYSN,Binding of Control Serum Blood-Bank to Looped peptides of the protein M of SARS-CoV Urbani,[1],0.7
same,Binding of Control serum Blood-bank to linear peptides of the protein M of SARS-CoV Urbani,[1],0.5
same,Binding of Control serum LUMC to linear peptides of the protein M of SARS-CoV Urbani,[1],0.2
same,Binding of Control serum LUMC to looped peptides of the protein M of SARS-CoV Urbani,[1],0.6
same,Binding of serum 1a to linear peptides of protein M of SARS-CoV Urbani,[2],0.7
same,Binding of serum 1a to looped/cyclic peptides of protein M of SARS-CoV Urbani,[2],0.8
same,Binding of serum 1b to linear peptides of protein M of SARS-CoV Urbani,[2],0.5
same,Binding of serum 1b to looped/cyclic peptides of protein M of SARS-CoV Urbani,[2],0.6
same,Binding of serum 2 to linear peptides of protein M of SARS-CoV Urbani,[2],0.3
same,Binding of serum 2 to looped/cyclic peptides of protein M of SARS-CoV Urbani,[2],0.6
same,Binding of serum 6 to linear peptides of protein M of SARS-CoV Urbani,[2],0.3
same,Binding of serum 6 to looped/cyclic peptides of protein M of SARS-CoV Urbani,[2],0.7
same,Binding of serum 37 to linear peptides of protein M of SARS-CoV Urbani,[2],0.6
same,Binding of serum 37 to looped/cyclic peptides of protein M of SARS-CoV Urbani,[2],0.7
same,Binding of serum 62 to linear peptides of protein M of SARS-CoV Urbani,[2],0.7
same,Binding of serum 62 to looped/cyclic peptides of protein M of SARS-CoV Urbani,[2],0.7
same,Binding of serum London to linear peptides of protein M of SARS-CoV Urbani,[2],0.2
same,Binding of serum London to looped/cyclic peptides of protein M of SARS-CoV Urbani,[2],0.3
same,Binding of serum SARS-green to linear peptides of protein M of SARS-CoV Urbani,[2],0.2
same,Binding of serum SARS-green to looped/cyclic peptides of protein M of SARS-CoV Urbani,[2],0.3
same,Binding of serum SARS-yellow to linear peptides of protein M of SARS-CoV Urbani,[2],0.0
same,Binding of serum SARS-yellow to looped/cyclic peptides of protein M of SARS-CoV Urbani,[2],0.6
same,Rabbit serum linear peptides,[3],0.7
same,Rabbit serum looped peptides,[3],0.3
LFMRFFTLGSITAQP,Binding of Control Serum Blood-Bank to Looped peptides,[1],0.7
same,Binding of Control serum Blood-bank to linear peptides,[1],0.7
same,Binding of Control serum LUMC to linear peptides,[1],0.6
same,Binding of Control serum LUMC to looped peptides,[1],0.5
same,Binding of serum 1a to linear peptides of protein X1 of SARS-CoV Urbani,[2],0.8
same,Binding of serum 1a to looped/cyclic peptide (PEPSCAN-ELISA),[2],0.5
same,Binding of serum 1b to linear peptides of protein X1 of SARS-CoV Urbani,[2],0.7
same,Binding of serum 1b to looped/cyclic peptide (PEPSCAN-ELISA),[2],0.3
same,Binding of serum 2 to linear peptides of protein X1 of SARS-CoV Urbani,[2],0.6
same,Binding of serum 2 to looped/cyclic peptide (PEPSCAN-ELISA),[2],0.4
same,Binding of serum 6 to linear peptides of protein X1 of SARS-CoV Urbani,[2],0.5
same,Binding of serum 6 to looped/cyclic peptide (PEPSCAN-ELISA),[2],0.3
same,Binding of serum 37 to linear peptides of protein X1 of SARS-CoV Urbani,[2],0.6
same,Binding of serum 37 to looped/cyclic peptide (PEPSCAN-ELISA),[2],0.5
same,Binding of serum 62 to linear peptides of protein X1 of SARS-CoV Urbani,[2],0.6
same,Binding of serum 62 to looped/cyclic peptide (PEPSCAN-ELISA),[2],0.5
same,Binding of serum London to linear peptides of protein X1 of SARS-CoV Urbani,[2],0.3
same,Binding of serum London to looped/cyclic peptide (PEPSCAN-ELISA),[2],0.2
same,Binding of serum SARS-green to linear peptides of protein X1 of SARS-CoV Urbani,[2],0.2
same,Binding of serum SARS-green to looped/cyclic peptide (PEPSCAN-ELISA),[2],0.3
same,Binding of serum SARS-yellow to linear peptides of protein X1 of SARS-CoV Urbani,[2],0.6
same,Binding of serum SARS-yellow to looped/cyclic peptide (PEPSCAN-ELISA),[2],0.4
same,Binding of a rabbit serum to linear peptides,[3],0.5
same,Binding of a rabbit serum to looped peptides,[3],0.4
